According to ChEMBL document CHEMBL1201862, “PubChem BioAssay data set” (2004):
Activity calls are given as the source filed them.

How the values were obtained:
[1] = target: Cytochrome P450 2C19 (Homo sapiens, UniProt P33261); experiment: Cytochrome panel assay with activity outcomes. Panel member name: p450-cyp2c19 Compounds with AC50 equal or less than 10 uM are considered active; type: functional; settings: read-out: AC50
[2] = target: Cytochrome P450 2C9 (Homo sapiens, UniProt P11712)
[3] = viability loss in CEM21 cells – cell-based, CellTiter-Glo luminescence, cherry-picked, cytotoxicity control for viral fusion inhibitor project, dose response (AID 652042); type: functional;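 further: potency for signal decrease meaning cytotoxicity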
[4] = off-target signal loss in HeLa-CEM21 co-culture – HeLa F-luc CTL cells, cherry-picked, counter-screen for HIV-1 Env fusion inhibitor project, dose response (AID 652040); type: functional, cell-based;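 further: potency for signal decrease marking cytotoxic or nonspecific inhibition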
[5] = HIV-1 AD8 envelope cell-cell fusion blockers – cherry-pick, dose response (AID 652062); type: functional, cell-based;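 further: luciferase signal from cell-cell fusion driven by HIV-1 clade B AD8 Env; potency is for inhibitors of fusion seen as a drop in luminescence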
[6] = target: T1, Protein skinhead-1 (Caenorhabditis elegans, UniProt P34707); type: functional
T1 sequence (P34707 whole entry): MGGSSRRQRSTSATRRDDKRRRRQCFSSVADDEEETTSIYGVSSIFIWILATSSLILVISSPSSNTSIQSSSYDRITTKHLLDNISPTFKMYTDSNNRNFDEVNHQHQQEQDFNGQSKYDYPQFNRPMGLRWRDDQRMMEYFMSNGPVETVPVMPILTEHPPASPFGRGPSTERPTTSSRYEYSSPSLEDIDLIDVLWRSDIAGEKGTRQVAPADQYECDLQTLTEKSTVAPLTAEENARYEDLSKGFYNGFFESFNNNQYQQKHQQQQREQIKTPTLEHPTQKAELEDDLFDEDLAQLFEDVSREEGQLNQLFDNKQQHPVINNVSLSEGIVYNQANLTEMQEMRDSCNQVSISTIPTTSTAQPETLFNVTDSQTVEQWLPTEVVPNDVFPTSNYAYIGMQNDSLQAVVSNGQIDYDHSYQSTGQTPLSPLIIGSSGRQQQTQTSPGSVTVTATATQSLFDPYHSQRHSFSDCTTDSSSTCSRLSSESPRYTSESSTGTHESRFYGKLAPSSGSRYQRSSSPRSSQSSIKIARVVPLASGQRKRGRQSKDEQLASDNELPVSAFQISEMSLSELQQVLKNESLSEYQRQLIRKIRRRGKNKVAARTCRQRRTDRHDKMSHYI

[7] = NIH-3T3 fibroblast cytotoxicity, dose response, cytotoxicity control, cell-based, fluorescence, Alamar Blue, secondary assay (AID 2327); type: functional;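 further: NIH-3T3 mouse fibroblasts cultured with fluconazole at 8 µg/mL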
[8] = cells; type: functional, cell-based
[9] = cells; type: functional, cell-based; remark: listed apart in the source
[10] = target: T2, Ubiquitin-conjugating enzyme E2 N (Homo sapiens, UniProt P61088); type: functional;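 further: Dose-response confirmation in a TR-FRET assay detecting UBC13-driven polyubiquitin chain formation, inhibition measured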
T2 sequence (P61088 whole entry): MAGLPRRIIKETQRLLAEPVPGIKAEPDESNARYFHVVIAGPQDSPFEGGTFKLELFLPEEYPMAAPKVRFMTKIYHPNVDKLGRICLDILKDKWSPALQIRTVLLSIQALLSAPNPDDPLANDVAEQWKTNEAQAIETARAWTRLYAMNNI

[11] = target: T3, DNA repair protein RAD52 homolog (Homo sapiens, UniProt P43351); type: functional, biochemical
T3 sequence (P43351 whole entry): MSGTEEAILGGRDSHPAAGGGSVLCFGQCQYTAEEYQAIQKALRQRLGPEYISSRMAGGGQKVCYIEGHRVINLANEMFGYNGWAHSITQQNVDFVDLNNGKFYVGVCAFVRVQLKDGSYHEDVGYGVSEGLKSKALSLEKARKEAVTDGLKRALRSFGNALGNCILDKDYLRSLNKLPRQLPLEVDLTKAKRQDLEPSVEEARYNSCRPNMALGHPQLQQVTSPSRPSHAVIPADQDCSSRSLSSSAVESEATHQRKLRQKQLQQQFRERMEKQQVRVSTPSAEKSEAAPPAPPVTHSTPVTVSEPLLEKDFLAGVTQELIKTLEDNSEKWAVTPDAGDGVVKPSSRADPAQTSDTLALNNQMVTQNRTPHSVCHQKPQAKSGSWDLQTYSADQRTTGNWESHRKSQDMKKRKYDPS

[12] = HEK-293T viability loss after treatment – luminescence, T-cell screen hits, cytotoxicity control for TCR NF-kB inhibitor project, dose response (AID 489026); type: functional, cell-based;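 further: cells exposed to compound about 14 hours before the viability readout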
[13] = reduction of Shn3 3'UTR-driven luciferase in osteoblasts – cell-based, Clone20 osteoblasts, firefly luciferase, cherry-picked, dose response (AID 624132); type: functional;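 further: firefly luciferase luminescence from reporter carrying the Shn3 3'UTR in osteoblasts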
[14] = loss of viability in HepG2 cells – cell-based, CellTiter-Glo, cherry-picked, cytotoxicity control for Shn3 inhibitor project, dose response (AID 624134); type: functional
[15] = non-specific 3'UTR reporter inhibition in Clone20-Shn3RL – cell-based, Renilla luciferase, cherry-picked, counter-screen for Shn3 inhibitor project, dose response (AID 624133); type: functional
[16] = blockers of HIV-1 envelope-mediated cell-cell fusion – cherry-pick, dose response (AID 652057); type: functional, cell-based
[17] = blockers of HIV-1 ZM109 envelope-driven cell-cell fusion – HeLa effector, CEM target cells, luciferase, cherry-pick, dose response (AID 652058); type: functional, cell-based;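 further: luciferase signal from HIV-1 Env mediated cell-cell fusion of effector and target cells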
[18] = target: T4, Short transient receptor potential channel 4 (Mus musculus, UniProt Q9QUQ5); experiment: calcium entry via TRPC4 opening agents – cell-based, HEK293 TRPC4/mu-opioid, Fluo-4 calcium, dose response (AID 434937); type: functional
T4 sequence (Q9QUQ5 whole entry): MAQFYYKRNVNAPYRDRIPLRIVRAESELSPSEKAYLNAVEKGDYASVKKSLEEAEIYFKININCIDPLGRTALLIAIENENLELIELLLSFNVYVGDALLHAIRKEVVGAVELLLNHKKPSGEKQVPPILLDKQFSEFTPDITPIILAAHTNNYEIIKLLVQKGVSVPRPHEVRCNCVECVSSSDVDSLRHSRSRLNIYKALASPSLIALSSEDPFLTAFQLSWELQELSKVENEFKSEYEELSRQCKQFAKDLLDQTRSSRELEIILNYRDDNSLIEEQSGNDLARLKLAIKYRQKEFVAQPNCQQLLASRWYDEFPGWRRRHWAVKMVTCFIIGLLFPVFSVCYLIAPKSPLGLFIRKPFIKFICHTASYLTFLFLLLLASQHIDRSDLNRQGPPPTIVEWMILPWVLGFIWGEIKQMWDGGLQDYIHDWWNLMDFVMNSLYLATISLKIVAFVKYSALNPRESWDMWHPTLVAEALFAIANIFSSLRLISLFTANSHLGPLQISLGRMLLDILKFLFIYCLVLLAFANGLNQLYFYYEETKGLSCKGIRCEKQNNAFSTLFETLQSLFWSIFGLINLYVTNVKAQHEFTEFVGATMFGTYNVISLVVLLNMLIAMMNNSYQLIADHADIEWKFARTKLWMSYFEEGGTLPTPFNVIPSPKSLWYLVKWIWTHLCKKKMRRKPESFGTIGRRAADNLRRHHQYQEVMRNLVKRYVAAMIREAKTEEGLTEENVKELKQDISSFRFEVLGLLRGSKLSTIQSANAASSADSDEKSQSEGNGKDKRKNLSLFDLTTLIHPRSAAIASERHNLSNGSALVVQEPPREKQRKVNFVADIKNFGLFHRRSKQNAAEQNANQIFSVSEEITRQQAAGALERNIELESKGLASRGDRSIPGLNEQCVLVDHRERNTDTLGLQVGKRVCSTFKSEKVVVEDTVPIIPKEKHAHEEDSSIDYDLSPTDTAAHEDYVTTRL

[19] = HGIII-sPLA2 enzyme inhibition potency – biochemical, QFRET, IC50, dose response (AID 743457);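 further: green fluorescence rise as the enzyme cleaves BODIPY PC-A2 in liposomes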
[20] = Trypanosoma cruzi growth suppression in host cells – NIH3T3 host cells, beta-gal luminescence, confirmation (AID 2044); type: functional, cell-based;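 further: intracellular parasites grown in NIH/3T3 mouse fibroblasts as host cells; luminescent beta-galactosidase reporter signal from transgenic T. cruzi replicating inside host cells; inhibitors lower the luminescence signal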
[21] = NIH3T3 cell viability loss – ATP luminescence, mouse fibroblasts, counter-screen, dose response (AID 2010); type: functional, cell-based;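 further: cells exposed to compound for about 90 hours before reading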
[22] = tested on: INS1; experiment: INS-1E survival protection against cytokine death – cell-based, luminescence, retest, dose response (AID 449756); type: functional; settings: Rattus norvegicus;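 further: cell death triggered by IL-1 beta plus TNF-alpha plus IFN-gamma mixture; protective hits raise ATP signal compared with cytokine alone wells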
[23] = target: T5, Cytochrome P450 1A2 (Homo sapiens, UniProt P05177)
T5 sequence (P05177 whole entry): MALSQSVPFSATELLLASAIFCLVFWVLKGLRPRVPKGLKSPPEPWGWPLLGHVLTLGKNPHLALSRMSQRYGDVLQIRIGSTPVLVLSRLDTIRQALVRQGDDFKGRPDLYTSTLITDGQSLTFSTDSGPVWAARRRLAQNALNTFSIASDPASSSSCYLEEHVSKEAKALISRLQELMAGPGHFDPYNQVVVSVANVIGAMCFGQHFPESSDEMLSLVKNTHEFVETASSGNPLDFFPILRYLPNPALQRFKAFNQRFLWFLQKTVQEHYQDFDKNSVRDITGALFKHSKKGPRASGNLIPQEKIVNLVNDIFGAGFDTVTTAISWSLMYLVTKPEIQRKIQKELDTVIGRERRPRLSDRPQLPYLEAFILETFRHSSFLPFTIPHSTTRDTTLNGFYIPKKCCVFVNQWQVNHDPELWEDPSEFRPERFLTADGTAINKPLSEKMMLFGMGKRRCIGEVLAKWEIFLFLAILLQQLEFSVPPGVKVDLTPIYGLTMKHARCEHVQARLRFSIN

[24] = target: Fatty acid synthase (Homo sapiens, UniProt P49327); experiment: inhibition of human FAS-TE enzyme activity – biochemical, kinetic fluorescence intensity, dose response (AID 624326); type: functional;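 further: rate of fluorescence rise from hydrolysis of a fluorogenic O-methyl fluorescein ester substrate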
Chain of Fatty acid synthase (P49327 whole entry): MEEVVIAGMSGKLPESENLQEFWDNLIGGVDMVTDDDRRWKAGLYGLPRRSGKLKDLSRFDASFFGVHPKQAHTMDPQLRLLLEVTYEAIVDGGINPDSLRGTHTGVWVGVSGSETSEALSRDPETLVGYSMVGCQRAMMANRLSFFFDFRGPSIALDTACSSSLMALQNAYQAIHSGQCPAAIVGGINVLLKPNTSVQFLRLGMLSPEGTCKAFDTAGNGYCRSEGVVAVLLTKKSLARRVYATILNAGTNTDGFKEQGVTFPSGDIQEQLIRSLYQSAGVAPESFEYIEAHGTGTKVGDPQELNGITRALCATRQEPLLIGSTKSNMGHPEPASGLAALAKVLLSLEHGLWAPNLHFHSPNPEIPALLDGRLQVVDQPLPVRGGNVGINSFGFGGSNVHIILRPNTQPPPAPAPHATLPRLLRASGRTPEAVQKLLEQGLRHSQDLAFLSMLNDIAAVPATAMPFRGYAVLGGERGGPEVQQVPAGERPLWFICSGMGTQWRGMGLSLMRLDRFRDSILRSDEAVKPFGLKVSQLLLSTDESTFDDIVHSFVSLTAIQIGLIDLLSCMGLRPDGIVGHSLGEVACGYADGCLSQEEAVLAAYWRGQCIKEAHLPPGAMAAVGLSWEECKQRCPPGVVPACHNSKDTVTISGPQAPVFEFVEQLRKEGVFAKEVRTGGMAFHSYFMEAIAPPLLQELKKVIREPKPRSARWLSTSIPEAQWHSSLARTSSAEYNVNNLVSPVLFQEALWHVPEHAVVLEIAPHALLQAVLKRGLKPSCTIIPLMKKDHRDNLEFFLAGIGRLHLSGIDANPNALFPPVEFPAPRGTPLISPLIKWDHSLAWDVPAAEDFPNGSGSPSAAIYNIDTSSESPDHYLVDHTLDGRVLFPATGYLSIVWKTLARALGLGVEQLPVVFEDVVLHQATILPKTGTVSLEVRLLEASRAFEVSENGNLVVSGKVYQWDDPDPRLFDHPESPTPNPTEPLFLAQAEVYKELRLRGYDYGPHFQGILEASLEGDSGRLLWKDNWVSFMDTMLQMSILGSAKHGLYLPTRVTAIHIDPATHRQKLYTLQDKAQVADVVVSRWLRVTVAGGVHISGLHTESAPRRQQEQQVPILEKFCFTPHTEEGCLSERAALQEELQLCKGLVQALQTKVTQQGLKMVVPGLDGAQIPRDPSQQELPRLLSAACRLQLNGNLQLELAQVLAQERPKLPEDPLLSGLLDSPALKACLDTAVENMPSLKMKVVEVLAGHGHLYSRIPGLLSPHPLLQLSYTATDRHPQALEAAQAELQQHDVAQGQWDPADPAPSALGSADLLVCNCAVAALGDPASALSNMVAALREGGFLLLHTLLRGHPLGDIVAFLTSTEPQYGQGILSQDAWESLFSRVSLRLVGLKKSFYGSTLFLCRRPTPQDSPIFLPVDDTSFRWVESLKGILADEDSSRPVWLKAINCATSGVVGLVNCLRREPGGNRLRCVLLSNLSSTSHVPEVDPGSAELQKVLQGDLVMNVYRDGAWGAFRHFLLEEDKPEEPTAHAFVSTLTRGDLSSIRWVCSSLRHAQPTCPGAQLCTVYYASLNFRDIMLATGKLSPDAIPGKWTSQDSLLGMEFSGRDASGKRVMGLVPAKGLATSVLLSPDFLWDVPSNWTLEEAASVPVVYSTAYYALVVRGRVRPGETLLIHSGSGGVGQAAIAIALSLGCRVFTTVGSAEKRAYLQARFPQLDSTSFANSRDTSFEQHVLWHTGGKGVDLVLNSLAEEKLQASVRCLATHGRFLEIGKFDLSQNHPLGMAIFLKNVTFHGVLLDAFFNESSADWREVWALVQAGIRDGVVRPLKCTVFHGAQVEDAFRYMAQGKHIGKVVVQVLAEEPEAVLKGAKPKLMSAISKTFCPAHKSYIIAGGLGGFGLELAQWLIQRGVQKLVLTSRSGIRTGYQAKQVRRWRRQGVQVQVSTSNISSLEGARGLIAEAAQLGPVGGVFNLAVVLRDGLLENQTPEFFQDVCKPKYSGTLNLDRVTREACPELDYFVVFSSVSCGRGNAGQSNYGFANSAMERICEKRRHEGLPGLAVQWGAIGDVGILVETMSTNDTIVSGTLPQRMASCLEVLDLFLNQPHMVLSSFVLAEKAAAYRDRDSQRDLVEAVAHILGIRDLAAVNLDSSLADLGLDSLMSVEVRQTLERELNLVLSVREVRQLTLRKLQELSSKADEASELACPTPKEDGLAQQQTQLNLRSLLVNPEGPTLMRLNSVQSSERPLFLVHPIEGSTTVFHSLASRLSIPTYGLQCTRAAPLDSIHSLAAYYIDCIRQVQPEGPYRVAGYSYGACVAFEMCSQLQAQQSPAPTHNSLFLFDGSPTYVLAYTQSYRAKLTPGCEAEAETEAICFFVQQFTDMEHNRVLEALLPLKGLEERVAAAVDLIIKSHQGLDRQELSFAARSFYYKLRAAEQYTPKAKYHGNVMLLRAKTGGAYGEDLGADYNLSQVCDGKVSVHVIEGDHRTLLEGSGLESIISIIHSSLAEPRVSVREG

[25] = target: Paired box protein Pax-8 (Homo sapiens, UniProt Q06710); experiment: PAX8 transcriptional activity inhibition in RMG-I – RMG-I cells, luciferase, cherry-pick, dose response (AID 687027); type: functional, cell-based;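 further: luciferase reporter driven by Pax8 target thyroperoxidase promoter measured by SteadyGlo luminescence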
Chain of Paired box protein Pax-8 (Q06710 whole entry): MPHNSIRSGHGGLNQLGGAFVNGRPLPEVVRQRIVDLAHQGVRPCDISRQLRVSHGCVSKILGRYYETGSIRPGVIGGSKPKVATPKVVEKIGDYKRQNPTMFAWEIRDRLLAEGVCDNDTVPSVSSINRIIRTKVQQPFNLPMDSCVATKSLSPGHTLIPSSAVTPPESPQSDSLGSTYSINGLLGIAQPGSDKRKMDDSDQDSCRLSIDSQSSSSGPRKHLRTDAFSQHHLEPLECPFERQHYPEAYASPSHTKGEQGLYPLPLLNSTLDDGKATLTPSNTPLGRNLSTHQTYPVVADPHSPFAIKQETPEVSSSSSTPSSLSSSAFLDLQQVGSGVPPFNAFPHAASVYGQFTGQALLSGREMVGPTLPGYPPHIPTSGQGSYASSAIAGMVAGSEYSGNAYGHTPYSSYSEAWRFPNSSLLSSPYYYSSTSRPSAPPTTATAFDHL

Chain of Cytochrome P450 2C9 (P11712 whole entry, the tested form may be a part): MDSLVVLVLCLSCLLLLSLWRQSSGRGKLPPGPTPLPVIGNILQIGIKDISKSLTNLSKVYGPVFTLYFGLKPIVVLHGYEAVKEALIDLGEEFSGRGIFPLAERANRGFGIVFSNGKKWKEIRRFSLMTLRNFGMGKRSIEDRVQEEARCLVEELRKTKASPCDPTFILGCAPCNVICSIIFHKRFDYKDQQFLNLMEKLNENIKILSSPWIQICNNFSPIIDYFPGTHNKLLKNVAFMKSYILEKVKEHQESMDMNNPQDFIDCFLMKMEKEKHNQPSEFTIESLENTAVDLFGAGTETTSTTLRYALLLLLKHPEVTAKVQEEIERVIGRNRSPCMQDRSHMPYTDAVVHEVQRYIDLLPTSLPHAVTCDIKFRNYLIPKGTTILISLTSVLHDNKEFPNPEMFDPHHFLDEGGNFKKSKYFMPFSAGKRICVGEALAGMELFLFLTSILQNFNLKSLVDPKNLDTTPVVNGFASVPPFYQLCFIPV
Chain of Cytochrome P450 2C19 (P33261 whole entry): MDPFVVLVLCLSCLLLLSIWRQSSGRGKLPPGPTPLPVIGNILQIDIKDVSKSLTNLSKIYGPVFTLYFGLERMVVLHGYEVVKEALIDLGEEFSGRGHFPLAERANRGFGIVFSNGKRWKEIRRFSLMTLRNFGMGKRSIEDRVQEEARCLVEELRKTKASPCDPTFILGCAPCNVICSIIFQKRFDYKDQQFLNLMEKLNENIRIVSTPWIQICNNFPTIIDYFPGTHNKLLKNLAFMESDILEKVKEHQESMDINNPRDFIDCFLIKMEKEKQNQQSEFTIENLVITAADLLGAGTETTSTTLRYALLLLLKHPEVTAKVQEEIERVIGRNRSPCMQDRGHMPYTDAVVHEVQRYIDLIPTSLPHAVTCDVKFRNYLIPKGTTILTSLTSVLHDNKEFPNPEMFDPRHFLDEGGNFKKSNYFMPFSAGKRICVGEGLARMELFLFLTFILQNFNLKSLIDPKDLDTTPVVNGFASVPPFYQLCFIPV

COCCCNC(=O)/C=C/c1cccc(Cl)c1
AC50 [1]: 15.8 µM (inconclusive)
AC50 [2]: inconclusive

CCN(CC)S(=O)(=O)c1cccc(NC(=O)c2ccc(-n3nc(C)cc3C)cc2)c1
AC50 [3]: 49.7 µM (active)
AC50 [4]: 10.7 µM (active)
AC50 [5]: 15.8 µM (active)

CCn1nccc1C(=O)Nc1ccc(Cl)c(Cl)c1
IC50 [6]: 43.4 µM (active)

O=C(Nc1ccccc1)c1cc(-c2ccccc2Cl)no1
AC50 [2]: inconclusive

CCOC(=O)c1c(-c2ccccc2)oc2ccc(OCC(O)CN(C)C)cc12 (stereo not given)
EC50 [7]: 10 µM (inconclusive)
EC50 [8]: > 350 µM (not active)
EC50 [9]: 21.7 µM (active)
IC50 [10]: > 20 µM (inactive)
AC50 [11]: 15.5 µM (active)

OC1CC2CCC(C1)N2CCCN1c2ccccc2Sc2ccc(Cl)cc21 (stereo not given)
AC50 [11]: 12.9 µM (active)

O=C(Nc1ccc(N2CCN(C(=O)c3ccc(Cl)cc3)CC2)cc1)c1ccc2c(c1)OCCO2
IC50 [12]: > 80 µM (inactive)
AC50 [13]: 2.54 µM (active)
AC50 [14]: 1.96 µM (active)
AC50 [15]: 7.89 µM (active)
AC50 [16]: 32.5 µM (active)
AC50 [3]: 47.7 µM (active)
AC50 [17]: 0.791 µM (active)
AC50 [5]: 6.8 µM (active)

CN1CCN(c2ccc(NC(=O)COc3cccc4ccccc34)cc2)CC1
EC50 [18]: 2.99 µM (active)

Cc1ccc(F)cc1-c1cc2nc(NCCCN(C)C)n(C)c(=O)c2s1
AC50 [11]: 19.2 µM (active)

NCCNC(=O)c1c(NC(=O)c2ccccc2)sc2c1CCCC2
EC50 [18]: 6.68 µM (active)

COc1ccccc1N=C(S)NNC(=O)c1nn(C)c(C)c1Cl
IC50 [19]: > 122 µM (inactive)

COc1ccc(/C(C)=N/NC(=O)c2cccc(S(=O)(=O)N3CCCC3)c2)c(O)c1
EC50 [8]: 11.6 µM (active)
EC50 [20]: 1.05 µM (active)
EC50 [9]: > 350 µM (not active)
EC50 [21]: 3.07 µM (active)
AC50 [22]: 0.631 µM (active)
AC50 [3]: 3.55 µM (active)
AC50 [5]: 17.4 µM (active)

CCCC(=O)N1CCN(c2ccc(NC(=O)c3cc4ccccc4o3)cc2)CC1
IC50 [6]: > 100 µM (inactive)

C[C@H](CO)N1C[C@H](C)[C@H](CN(C)S(=O)(=O)c2cccc(C#N)c2)OCc2ccccc2-c2c(n(C)c3ccccc23)C1=O
AC50 [16]: 0.726 µM (active)
AC50 [3]: 46.1 µM (active)
AC50 [17]: 3.13 µM (active)
AC50 [5]: 10.3 µM (active)

CC(C)CCN1CC(C(=O)N2CCN(c3ccc(F)cc3)CC2)CC1=O (stereo not given)
AC50 [23]: 0.251 µM (inconclusive)
AC50 [2]: inconclusive

CCCN(CCC)CCCNC(=O)C1CCC(CNS(=O)(=O)c2cccc3nsnc23)CC1 (stereo not given)
EC50 [18]: 0.531 µM (active)

Cc1ccc(C(=O)NC(=S)Nc2ccccc2C(F)(F)F)c(C)c1
IC50 [6]: > 100 µM (inactive)

O=C(C[C@H]1C[C@H](C(=O)N2CCOCC2)[C@@]2(CCC3CCCC3)c3[nH]c4cc(-c5ccco5)ccc4c3CCN2C1=O)NCCc1ccccn1
IC50 [24]: 7.01 µM (active)

COc1ccc(CCC(=O)NN=C(S)Nc2cccc(C(C)=O)c2)cc1
IC50 [19]: > 122 µM (inactive)

N=C(N)Nc1ccc2[nH]c3c(c2c1)C[C@@]1(O)[C@H]2Cc4ccc(O)c5c4[C@@]1(CCN2CC1CC1)[C@H]3O5
AC50 [11]: 8.43 µM (active)

CC1(C)CC(CCNCc2ccc3c(c2)OCO3)(Cc2ccccc2)CCO1 (stereo not given)
EC50 [18]: 6.68 µM (active)

C[C@H]1CN([C@@H](C)CO)C(=O)Cc2cc(NC(=O)Nc3cccc4ccccc34)ccc2O[C@H]1CN(C)S(=O)(=O)c1ccccc1
AC50 [16]: < 0.26 µM (active)
AC50 [3]: 33.8 µM (active)
AC50 [17]: < 0.26 µM (active)
AC50 [5]: 1.07 µM (active)

O=C(CCS(=O)(=O)c1cccc2nsnc12)N1CCN(c2ccccc2F)CC1
IC50 [6]: > 100 µM (inactive)

Sc1nnc(-c2ccc(Cl)cc2Cl)n1Cc1ccccc1
IC50 [19]: > 122 µM (inactive)

COC(=O)C12OCC34C(CC5C(C)=C(O)C(=O)CC5(C)C3C(O)C1O)OC(=O)C(OC(=O)/C=C(\C)C(C)C)C24 (stereo not given)
AC50 [13]: < 0.26 µM (active)
AC50 [15]: < 0.26 µM (active)
IC50 [6]: 42.7 µM (active)
AC50 [25]: < 0.26 µM (active)
